The values below come from US12071434B2, “Heterocyclic compound” (Takeda Pharmaceutical Company Limited, priority 2018, dated 2024).

The target of the assay is T1, human orexin type 2 receptor (Homo sapiens, UniProt O43614).
T1 construct: expressed in transfected cells
T1 sequence (O43614 1-444): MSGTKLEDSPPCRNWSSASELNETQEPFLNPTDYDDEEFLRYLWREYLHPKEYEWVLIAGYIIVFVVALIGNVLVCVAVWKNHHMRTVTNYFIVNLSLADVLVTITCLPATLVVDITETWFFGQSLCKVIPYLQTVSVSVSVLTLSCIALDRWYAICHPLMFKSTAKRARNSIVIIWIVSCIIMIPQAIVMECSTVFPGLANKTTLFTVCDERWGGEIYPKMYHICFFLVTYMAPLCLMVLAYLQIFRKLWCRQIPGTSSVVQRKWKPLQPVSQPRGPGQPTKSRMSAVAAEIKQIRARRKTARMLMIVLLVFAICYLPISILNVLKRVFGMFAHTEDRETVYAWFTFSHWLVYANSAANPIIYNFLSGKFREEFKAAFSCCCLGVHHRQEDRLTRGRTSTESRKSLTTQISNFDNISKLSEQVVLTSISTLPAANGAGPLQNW
Put plainly: Measurement of orexin type 2 receptor agonist activity (calcium fluorescence, Fluo-4 AM, FDSS) in CHO cells forcibly expressing human OX2 receptor. Type of assay: cell-based. The settings on record: test compound 3 μM, DMSO = 0%, orexin A (human) 10 nM = 100%. The gist of the method:
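CHO-dhfr cells stably expressing human OX2 receptor, loaded with Fluo-4 AM plus probenecid for 30 min at 37 °C, then 30 min at room temperature. Calcium fluorescence read for about 2 min 40 s after compound addition. Activity (%) scaled between DMSO (0%) and 10 nM human orexin A (100%).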

Consider `CCc1ccc2n(c1=O)[C@@H](Cc1cccc(-c3cccc(F)c3)c1F)[C@@H](NC(=O)C(=O)N(C)C)CC2` (relative stereo) [Example 43, rel-N~2~-{(3S,4S)-4-[(2,3′-difluoro[1,1′-biphenyl]-3-yl)methyl]-7-ethyl-6-oxo-1,3,4,6-tetrahydro-2H-quinolizin-3-yl}-N~1~,N~1~-dimethylethanediamide], for which the “0X2R agonist activity (3 μM, %)” value is reported as 90%.

With `COC1(C(=O)N[C@H]2CCc3ccc(C)c(=O)n3[C@H]2Cc2cccc(-c3cccc(F)c3)c2F)CC1` (relative stereo) [Example 56, rel-N-{(3S,4S)-4-[(2,3′-difluoro[1,1′-biphenyl]-3-yl)methyl]-7-methyl-6-oxo-1,3,4,6-tetrahydro-2H-quinolizin-3-yl}-1-methoxycyclopropane-1-carboxamide], the “0X2R agonist activity (3 μM, %)” value amounted to 93%.

As to `Cc1ccc2n(c1=O)[C@@H](Cc1cccc(-c3cccc(F)c3)c1)[C@@H](NS(C)(=O)=O)CC2` (relative stereo) [Example 69, rel-N-{(3S,4S)-4-[(3′-fluoro[1,1′-biphenyl]-3-yl)methyl]-7-methyl-6-oxo-1,3,4,6-tetrahydro-2H-quinolizin-3-yl}methanesulfonamide], the “0X2R agonist activity (3 μM, %)” value stood at 94%.

In the case of `CC(C)n1cnc2c(c1=O)[C@@H](Cc1cccc(-c3ccccc3)c1)[C@@H](NS(C)(=O)=O)CC2` (relative stereo) [Example 99, rel-N-[(5R,6S)-5-[([1,1′-biphenyl]-3-yl)methyl]-4-oxo-3-(propan-2-yl)-3,4,5,6,7,8-hexahydroquinazolin-6-yl]methanesulfonamide], the “0X2R agonist activity (3 μM, %)” value was 95%.

Consider `CC1OC[C@@H]2CC[C@H](NS(C)(=O)=O)[C@H](Cc3cccc(-c4cccc(F)c4)c3)N2C1=O` (relative stereo) [Example 140, rel-N-{(6S,7S,9aS)-6-[(3′-fluoro[1,1′-biphenyl]-3-yl)methyl]-3-methyl-4-oxooctahydropyrido[2,1-c][1,4]oxazin-7-yl}methanesulfonamide], for which the “0X2R agonist activity (3 μM, %)” value turned out to be 94%.

Regarding `CC(C)n1cnc2c(c1=O)[C@@H](Cc1cc(F)cc(-c3ccccc3)c1)[C@@H](NS(C)(=O)=O)CC2` (relative stereo) [Example 141, rel-N-[(5R,6S)-5-[(5-fluoro[1,1′-biphenyl]-3-yl)methyl]-4-oxo-3-(propan-2-yl)-3,4,5,6,7,8-hexahydroquinazolin-6-yl]methanesulfonamide], the “0X2R agonist activity (3 μM, %)” value is recorded as 103%.

`CC(C)n1cnc2c(c1=O)[C@@H](Cc1cccc(-c3ccccc3)c1)[C@@H](NS(=O)(=O)CF)CC2` (relative stereo) [Example 145, rel-N-[(5R,6S)-5-[([1,1′-biphenyl]-3-yl)methyl]-4-oxo-3-(propan-2-yl)-3,4,5,6,7,8-hexahydroquinazolin-6-yl]-1-fluoromethanesulfonamide]: the “0X2R agonist activity (3 μM, %)” value was 92%.

Consider `CC(C)n1cnc2c(c1=O)[C@@H](Cc1cccc(-c3ccccc3F)c1F)[C@@H](NS(C)(=O)=O)CC2` (relative stereo) [Example 149, rel-N-[(5R,6S)-5-[(2,2′-difluoro[1,1′-biphenyl]-3-yl)methyl]-4-oxo-3-(propan-2-yl)-3,4,5,6,7,8-hexahydroquinazolin-6-yl]methanesulfonamide], for which the “0X2R agonist activity (3 μM, %)” value worked out at 105%.

`CC(C)n1cnc2c(c1=O)[C@@H](Cc1ccc(F)c(-c3ccccc3)c1)[C@@H](NS(C)(=O)=O)CC2` (relative stereo) [Example 150, rel-N-[(5R,6S)-5-[(6-fluoro[1,1′-biphenyl]-3-yl)methyl]-4-oxo-3-(propan-2-yl)-3,4,5,6,7,8-hexahydroquinazolin-6-yl]methanesulfonamide]: the “0X2R agonist activity (3 μM, %)” value worked out at 98%.

Consider `CC(C)n1cnc2c(c1=O)[C@@H](Cc1cccc(-c3cccc(F)c3F)c1F)[C@@H](NS(C)(=O)=O)CC2` (relative stereo) [Example 151, rel-N-{(5R,6S)-4-oxo-3-(propan-2-yl)-5-[(2,2′,3′-trifluoro[1,1′-biphenyl]-3-yl)methyl]-3,4,5,6,7,8-hexahydroquinazolin-6-yl}methanesulfonamide], for which the “0X2R agonist activity (3 μM, %)” value is 107%.

For the compound `CC(C)n1cnc2c(c1=O)[C@@H](Cc1cccc(-c3cccc(C(F)F)c3F)c1F)[C@@H](NS(C)(=O)=O)CC2` (relative stereo) [Example 152, rel-N-[(5R,6S)-5-{[3′-(difluoromethyl)-2,2′-difluoro[1,1′-biphenyl]-3-yl]methyl}-4-oxo-3-(propan-2-yl)-3,4,5,6,7,8-hexahydroquinazolin-6-yl]methanesulfonamide], the “0X2R agonist activity (3 μM, %)” value is 94%.

In the case of `CC(C)n1cnc2c(c1=O)[C@@H](Cc1csc(-c3cccc(F)c3F)n1)[C@@H](NS(C)(=O)=O)CC2` (relative stereo) [Example 154, rel-N-[(5R,6S)-5-{[2-(2,3-difluorophenyl)-1,3-thiazol-4-yl]methyl}-4-oxo-3-(propan-2-yl)-3,4,5,6,7,8-hexahydroquinazolin-6-yl]methanesulfonamide], the “0X2R agonist activity (3 μM, %)” value came to 100%.

For `CC(C)n1cnc2c(c1=O)[C@@H](Cc1csc(-c3ccccc3F)n1)[C@@H](NS(C)(=O)=O)CC2` (relative stereo) [Example 155, rel-N-[(5R,6S)-5-{[2-(2-fluorophenyl)-1,3-thiazol-4-yl]methyl}-4-oxo-3-(propan-2-yl)-3,4,5,6,7,8-hexahydroquinazolin-6-yl]methanesulfonamide], the “0X2R agonist activity (3 μM, %)” value turned out to be 104%.

Regarding `CC(C)n1cnc2c(c1=O)[C@@H](Cc1csc(-c3ccccc3F)n1)[C@@H](NS(=O)(=O)C1(F)CC1)CC2` (relative stereo) [Example 156, rel-1-fluoro-N-[(5R,6S)-5-{[2-(2-fluorophenyl)-1,3-thiazol-4-yl]methyl}-4-oxo-3-(propan-2-yl)-3,4,5,6,7,8-hexahydroquinazolin-6-yl]cyclopropane-1-sulfonamide], the “0X2R agonist activity (3 μM, %)” value is 93%.

Turning to `CC(C)N1CNC2=C(C1=O)[C@@H](Cc1csc(-c3ccccc3F)n1)[C@@H](NS(=O)(=O)C1(F)CC1)CC2` (relative stereo) [Example 157, rac-1-fluoro-N-[(5R,6S)-5-{[2-(2-fluorophenyl)-1,3-thiazol-4-yl]methyl}-4-oxo-3-(propan-2-yl)-1,2,3,4,5,6,7,8-octahydroquinazolin-6-yl]cyclopropane-1-sulfonamide], the “0X2R agonist activity (3 μM, %)” value is given as 99%.

Consider `CC(C)c1nn(C)c2c(c1=O)[C@@H](Cc1cccc(-c3ccccc3)c1)[C@@H](NS(C)(=O)=O)CC2` (relative stereo) [Example 161, rel-N-[(5R,6S)-5-[([1,1′-biphenyl]-3-yl)methyl]-1-methyl-4-oxo-3-(propan-2-yl)-1,4,5,6,7,8-hexahydrocinnolin-6-yl]methanesulfonamide], for which the “0X2R agonist activity (3 μM, %)” value was found to be 101%.

Take `CC(C)n1cnc2c(c1=O)[C@@H](Cc1csc(-c3ccccc3)n1)[C@@H](NS(=O)(=O)C1CC1)CC2` (relative stereo) [Example 169, rel-N-[(5R,6S)-4-oxo-5-[(2-phenyl-1,3-thiazol-4-yl)methyl]-3-(propan-2-yl)-3,4,5,6,7,8-hexahydroquinazolin-6-yl]cyclopropanesulfonamide]: the “0X2R agonist activity (3 μM, %)” value was found to be 91%.
